Test results from patent US8865623B2, “Herbicidally active cyclic diones and derivatives thereof, processes for their preparation, compositions, and method of controlling weeds” (Syngenta Limited, priority 2009, dated 2014).

What was measured:
Format in all cases: in vivo
[1] = tested on: Alopecurus myosuroides (ALOMY); experiment: Pre-emergence herbicidal activity, glasshouse pot test; settings: Alopecurus myosuroides, 312 h; Rate 250 g/ha; pre-emergence spray; evaluated after 13 days; read-out: Pre-emergence activity ALOMY (100=total damage to plant; 0=no damage to plant)
In short: (§1)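 Sow seeds in standard soil in pots; grow 1 day (pre-emergence) or 8 days (post-emergence) at 24/16° C, 14 h light, 65% humidity. Spray aqueous solution from acetone/water 50:50 + 0.5% Tween 20 formulation. Grow on, watering twice daily; score damage 0–100 after 13 days.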

Avena fatua (AVEFA) [2] = experiment: as above; settings: Avena fatua, 312 h; Rate 250 g/ha; pre-emergence spray; evaluated after 13 days; read-out: Pre-emergence activity AVEFA (100=total damage to plant; 0=no damage to plant)
In short: as §1

[3] = tested on: Echinochloa crus-galli (ECHCG); experiment: as above; settings: Echinochloa crus-galli, 312 h; Rate 250 g/ha; pre-emergence spray; evaluated after 13 days; read-out: Pre-emergence activity ECHCG (100=total damage to plant; 0=no damage to plant)
In short: as §1

Lolium perenne (LOLPE) [4] = experiment: as above; settings: Lolium perenne, 312 h; Rate 250 g/ha; pre-emergence spray; evaluated after 13 days; read-out: Pre-emergence activity LOLPE (100=total damage to plant; 0=no damage to plant)
In short: as §1

[5] = tested on: Alopecurus myosuroides (ALOMY); experiment: Post-emergence herbicidal activity, glasshouse pot test; settings: Alopecurus myosuroides, 312 h, rate 250 g/ha, evaluated after 13 days, glasshouse, read-out: Post-emergence activity ALOMY (100=total damage to plant; 0=no damage to plant)
In short: as §1

Avena fatua (AVEFA) [6] = experiment: as above; settings: Avena fatua, 312 h, rate 250 g/ha, evaluated after 13 days, glasshouse, read-out: Post-emergence activity AVEFA (100=total damage to plant; 0=no damage to plant)
In short: as §1

[7] = tested on: Echinochloa crus-galli (ECHCG); experiment: as above; settings: Echinochloa crus-galli, 312 h, rate 250 g/ha, evaluated after 13 days, glasshouse, read-out: Post-emergence activity ECHCG (100=total damage to plant; 0=no damage to plant)
In short: as §1

Lolium perenne (LOLPE) [8] = experiment: as above; settings: Lolium perenne, 312 h, rate 250 g/ha, evaluated after 13 days, glasshouse, read-out: Post-emergence activity LOLPE (100=total damage to plant; 0=no damage to plant)
In short: as §1

Row | Structure (SMILES) | pest or weed control at 250 g/ha [1] | pest or weed control at 250 g/ha (Avena fatua (AVEFA) [2]) | pest or weed control at 250 g/ha [3] | pest or weed control at 250 g/ha (Lolium perenne (LOLPE) [4]) | pest or weed control at 250 g/ha [5] | pest or weed control at 250 g/ha (Avena fatua (AVEFA) [6]) | pest or weed control at 250 g/ha [7] | pest or weed control at 250 g/ha (Lolium perenne (LOLPE) [8])
1 | CC1(C)OC(C)(C)C(O)=C(c2cc(Oc3ccc(Cl)cc3Cl)ccc2C2CC2)C1=O [Example A-262] | 30% | 0% | 70% | 70% | 80% | 50% | 90% | 60%
2 | CCc1ccc(Oc2ccc([N+](=O)[O-])c(Cl)c2)cc1C1=C(O)CC(C)(C)CC1=O [Example A-284] | 60% | 0% | 100% | 70% | 60% | 0% | 100% | 60%
3 | CCc1ccc(Oc2ccc(Br)cc2)cc1C1=C(O)C(C)(C)OC(C)(C)C1=O [Example A-8] | 60% | 10% | 100% | 100% | 100% | 0% | 100% | 100%
4 | CCc1ccc(Oc2ccc(F)c(Cl)c2)cc1C1=C(O)CC(C)(C)CC1=O [Example A-257] | 0% | 0% | 40% | 20% | 30% | 0% | 80% | 50%
5 | CCc1ccc(Oc2ccc(Br)cc2F)cc1C1=C(O)CCC(C)(C)C1=O [Example A-114] | 20% | 50% | 60% | 90% | 10% | 10% | 80% | 50%
6 | CCc1ccc(Oc2nc(F)c(Cl)c(Cl)c2Cl)cc1C1=C(O)C(C)(C)OC(C)(C)C1=O [Example A-60] | 0% | 0% | 50% | 40% | 0% | 0% | 0% | 0%
7 | CCc1ccc(Oc2ccc(C#N)cc2Cl)cc1C1=C(O)C(C)(C)OC(C)(C)C1=O [Example A-73] | 90% | 80% | 100% | 80% | 90% | 40% | 100% | 70%
8 | CCc1ccc(Oc2ccc(Br)cc2)cc1C1=C(O)[C@@H]2CC[C@](C)(C1=O)C2(C)C [Example A-234] | 70% | 40% | 100% | 90% | 80% | 90% | 100% | 80%
9 | CCc1ccc(Oc2ccc3cc(Br)ccc3n2)cc1C1=C(O)C(C)(C)OC(C)(C)C1=O [Example A-256] | 50% | 20% | 80% | 80% | 90% | 80% | 90% | 90%
10 | CCc1ccc(Oc2ccc([N+](=O)[O-])c(Cl)c2)cc1C1=C(O)CC2(CCOCC2)CC1=O [Example A-276] | 40% | 10% | 100% | 70% | 60% | 10% | 100% | 40%
11 | CCc1ccc(Oc2cccc(F)n2)cc1C1=C(O)C(C)(C)OC(C)(C)C1=O [Example A-43] | 10% | 0% | 90% | 10% | 0% | 0% | 70% | 20%
12 | CCc1ccc(Oc2nc3ccc([N+](=O)[O-])cc3s2)cc1C1=C(O)CC(C)(C)CC1=O [Example A-299] | 50% | 20% | 100% | 100% | 90% | 90% | 100% | 80%
13 | CCc1ccc(Oc2ccc(Cl)c(C)c2)cc1C1=C(O)C(C)(C)OC(C)(C)C1=O [Example A-184] | 10% | 0% | 50% | 50% | 20% | 0% | 30% | 30%
14 | CCc1ccc(Oc2ccc(Cl)cc2F)cc1C1=C(O)CC2(CCOCC2)CC1=O [Example A-65] | 70% | 90% | 100% | 80% | 90% | 90% | 100% | 80%
15 | CCc1ccc(Oc2ccc(Cl)cc2F)cc1C1=C(O)[C@H]2CC[C@H](C2)C1=O (single isomer, unassigned) [Example A-89] | 80% | 80% | 100% | 100% | 90% | 90% | 100% | 60%
16 | CCc1ccc(Oc2nc3cc(Cl)ccc3s2)cc1C1=C(O)CC(C)(C)CC1=O [Example A-293] | 80% | 30% | 100% | 100% | 100% | 100% | 100% | 100%
17 | CCc1ccc(Oc2ccc(C#N)cc2C(F)(F)F)cc1C1=C(O)C(C)(C)OC(C)(C)C1=O [Example A-74] | 60% | 90% | 100% | 100% | 90% | 80% | 100% | 80%
18 | CCc1ccc(Oc2nc3ccc(Cl)cc3[n+]([O-])n2)cc1C1=C(O)C(C)(C)OC(C)(C)C1=O [Example A-236] | 40% | 20% | 80% | 20% | 100% | 100% | 100% | 30%
19 | CCc1ccc(Oc2ncc(C(F)(F)F)cc2F)cc1C1=C(O)CC(C)(C)CC1=O [Example A-285] | 90% | 70% | 100% | 100% | 100% | 100% | 100% | 100%
20 | CCc1ccc(Oc2cc(C)ccn2)cc1C1=C(O)C(C)(C)OC(C)(C)C1=O [Example A-64] | 60% | 0% | 20% | 80% | 40% | 0% | 30% | 40%
21 | CCc1ccc(Oc2ccc(F)cc2)cc1C1=C(O)[C@H]2CC[C@H](C2)C1=O (single isomer, unassigned) [Example A-92] | 40% | 30% | 100% | 90% | 20% | 10% | 80% | 30%
